Test results: PubChem BioAssay AID330 (DTP/NCI, 2004)
Inconclusive results and toxic doses are left out. How the source made its calls: active means survival T/C of 150% or more; inactive means T/C below 125% in these data.

Tested on: P388 leukemia ip, CD2F1 mice, survival T/C
Assay: NCI In Vivo Anticancer Drug Screen. Data for tumor model P388 Leukemia (intraperitoneal) in CD2F1 (CDF1) mice
Details: endpoint: median survival time, higher = longer survival
Outline: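 Mice carrying the transplanted tumor received test compound or vehicle. Survival was recorded in each group, and the value is the treated-group measurement divided by that of the vehicle-treated control group.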

[1] = dose: 12.5 mg/kg/injection, schedule: Q01DX005 (ip), vehicle: saline
[2] = dose: 25.0 mg/kg/injection, schedule: Q01DX005 (ip), vehicle: saline
[3] = dose: 50.0 mg/kg/injection, schedule: Q01DX005 (ip), vehicle: saline
[4] = dose: 50.0 mg/kg/injection, schedule: Q01DX005 (ip), vehicle: Klucel (hydroxypropylcellulose) (HPC)
[5] = dose: 100.0 mg/kg/injection, schedule: Q01DX005 (ip), vehicle: Klucel (hydroxypropylcellulose) (HPC)
[6] = dose: 200.0 mg/kg/injection, schedule: Q01DX005 (ip), vehicle: Klucel (hydroxypropylcellulose) (HPC)
[7] = dose: 10.0 mg/kg/injection, schedule: Q01DX009 (ip), vehicle: saline with Tween-80
[8] = dose: 20.0 mg/kg/injection, schedule: Q01DX009 (ip), vehicle: saline with Tween-80
[9] = dose: 100.0 mg/kg/injection, schedule: Q01DX005 (ip), vehicle: saline
[10] = dose: 50.0 mg/kg/injection, schedule: Q01DX009 (ip), vehicle: saline
[11] = dose: 100.0 mg/kg/injection, schedule: Q01DX009 (ip), vehicle: saline
[12] = dose: 200.0 mg/kg/injection, schedule: Q01DX009 (ip), vehicle: saline
[13] = dose: 50.0 mg/kg/injection, schedule: Q01DX009 (ip), vehicle: Klucel (hydroxypropylcellulose) (HPC)
[14] = dose: 100.0 mg/kg/injection, schedule: Q01DX009 (ip), vehicle: Klucel (hydroxypropylcellulose) (HPC)
[15] = dose: 200.0 mg/kg/injection, schedule: Q01DX009 (ip), vehicle: Klucel (hydroxypropylcellulose) (HPC)
[16] = dose: 60.0 mg/kg/injection, schedule: Q01DX005 (ip), vehicle: saline with Tween-80
[17] = dose: 120.0 mg/kg/injection, schedule: Q01DX005 (ip), vehicle: saline with Tween-80
[18] = dose: 240.0 mg/kg/injection, schedule: Q01DX005 (ip), vehicle: saline with Tween-80
[19] = dose: 50.0 mg/kg/injection, schedule: Q01DX005 (ip), vehicle: saline with Tween-80
[20] = dose: 100.0 mg/kg/injection, schedule: Q01DX005 (ip), vehicle: saline with Tween-80
[21] = dose: 200.0 mg/kg/injection, schedule: Q01DX005 (ip), vehicle: saline with Tween-80
[22] = dose: 12.5 mg/kg/injection, schedule: Q01DX001 (ip), vehicle: saline
[23] = dose: 25.0 mg/kg/injection, schedule: Q01DX001 (ip), vehicle: saline
[24] = dose: 100.0 mg/kg/injection, schedule: Q01DX009 (ip), vehicle: saline with Tween-80
[25] = dose: 200.0 mg/kg/injection, schedule: Q01DX009 (ip), vehicle: saline with Tween-80

Measured: T/C

CN1CCC(CCl)C(c2ccccc2)C1 (stereo unspecified)
inactive: [1] 100 % of control | [2] 100 % of control | [3] 107 % of control

CC(=O)N1C(CO)C(O)C(O)C1n1cnc2c(N)ncnc21 (stereo unspecified)
inactive: [4] 95 % of control | [5] 100 % of control | [6] 100 % of control | dose: 300.0 mg/kg/injection, schedule: Q01DX005 (ip), vehicle: Klucel (hydroxypropylcellulose) (HPC) 100 % of control

CC(=O)C(=O)c1ccc(O)cc1O
inactive: [7] 96 % of control | [8] 103 % of control | dose: 40.0 mg/kg/injection, schedule: Q01DX009 (ip), vehicle: saline with Tween-80 107 % of control

CC(C)NCCCNC(=O)C1COc2ccccc2O1 (stereo unspecified)
inactive: [3] 94 % of control | [9] 88 % of control | dose: 200.0 mg/kg/injection, schedule: Q01DX005 (ip), vehicle: saline 90 % of control

C/C(=N\O)c1ccc2ccccc2c1
inactive: [10] 101 % of control | [11] 113 % of control | [12] 102 % of control

Cc1nc(Cl)c2c3c(sc2n1)CCCC3
inactive: dose: 18.75 mg/kg/injection, schedule: Q01DX001 (ip), vehicle: saline sonified 95 % of control | dose: 37.5 mg/kg/injection, schedule: Q01DX001 (ip), vehicle: saline sonified 100 % of control | dose: 75.0 mg/kg/injection, schedule: Q01DX001 (ip), vehicle: saline sonified 100 % of control

NC(N)=NCCSCc1ccc2ccccc2n1
inactive: [3] 94 % of control | [9] 101 % of control

CC(=O)C(C)(NCc1ccccc1)c1ccccc1 (stereo unspecified)
inactive: [13] 101 % of control | [14] 108 % of control | [15] 108 % of control | dose: 400.0 mg/kg/injection, schedule: Q01DX009 (ip), vehicle: Klucel (hydroxypropylcellulose) (HPC) 90 % of control

Nc1ccc(N)cc1
inactive: dose: 5.0 mg/kg/injection, schedule: Q01DX009 (ip), vehicle: saline with Tween-80 95 % of control | dose: 5.0 mg/kg/injection, schedule: Q04DX003 (ip), vehicle: saline with Tween-80 104 % of control | [7] 100 % of control | dose: 10.0 mg/kg/injection, schedule: Q04DX003 (ip), vehicle: saline with Tween-80 104 % of control | [8] 100 % of control | dose: 20.0 mg/kg/injection, schedule: Q04DX003 (ip), vehicle: saline with Tween-80 104 % of control

O=C(O)C12C3CCC(O3)C1(C(=O)O)C1CCC2O1 (stereo unspecified)
inactive: [16] 94 % of control | [17] 90 % of control | [18] 88 % of control

Cc1cc2c(=O)c(C(=O)O)c[nH]c2cc1-n1cccc1
inactive: [16] 97 % of control | [17] 100 % of control | [18] 102 % of control

COc1ccc(CN2CCCN(Cc3ccc(OC)cc3)P2(=O)Nc2ccc(OC)cc2)cc1
inactive: [19] 97 % of control | [20] 100 % of control | [21] 100 % of control

O=C1CCCC(O)=C1[Se]C1=C(O)CCCC1=O
inactive: dose: 6.25 mg/kg/injection, schedule: Q01DX001 (ip), vehicle: saline 103 % of control | [22] 101 % of control | [23] 101 % of control

O=c1[nH]c(=O)c2n[nH]nc2[nH]1
inactive: [24] 86 % of control | dose: 100.0 mg/kg/injection, schedule: Q04DX003 (ip), vehicle: saline with Tween-80 90 % of control | [25] 100 % of control | dose: 200.0 mg/kg/injection, schedule: Q04DX003 (ip), vehicle: saline with Tween-80 90 % of control | dose: 400.0 mg/kg/injection, schedule: Q01DX009 (ip), vehicle: saline with Tween-80 95 % of control | dose: 400.0 mg/kg/injection, schedule: Q04DX003 (ip), vehicle: saline with Tween-80 100 % of control

CCOP(=O)(N=Nc1ccc(OC)nc1)OCC
inactive: [1] 102 % of control | [2] 109 % of control | [3] 100 % of control | [9] 108 % of control | dose: 1560.0 micrograms/kg/injection, schedule: Q01DX009 (ip), vehicle: saline 104 % of control | dose: 3125.0 micrograms/kg/injection, schedule: Q01DX009 (ip), vehicle: saline 102 % of control | dose: 6250.0 micrograms/kg/injection, schedule: Q01DX009 (ip), vehicle: saline 108 % of control | dose: 12500.0 micrograms/kg/injection, schedule: Q01DX009 (ip), vehicle: saline 106 % of control | dose: 25000.0 micrograms/kg/injection, schedule: Q01DX009 (ip), vehicle: saline 112 % of control

CC1C(n2[nH]c(=O)n(C)c2=O)c2ccccc2-n2c(=O)n(C)c(=O)n21 (stereo unspecified)
inactive: [4] 96 % of control | [5] 101 % of control | [6] 103 % of control

COC(CN(C)C)C(Cl)(Cl)Cl (stereo unspecified)
inactive: [13] 103 % of control | [14] 108 % of control | [15] 101 % of control

Cc1cc(OP2(=O)Nc3ccccc3-c3ccccc3N2)ccc1Cl
inactive: [19] 98 % of control | [20] 89 % of control

O=N[O-].O=[N+]([O-])O.[Co+3].[NH2-].[NH2-].[NH2-].[NH2-].[NH2-]
inactive: [22] 97 % of control | [23] 110 % of control

CCCCCCC(/C=C/c1ccc(Cl)c(Cl)c1)=N\Nc1c(F)c(F)c(F)c(F)c1F
inactive: dose: 50.0 mg/kg/injection, schedule: Q01DX009 (ip), vehicle: saline with Tween-80 86 % of control | [24] 99 % of control | [25] 98 % of control

O=C(O)c1cocc1C(=O)N1Cc2cc3ccccc3nc2C1
inactive: dose: 8.0 mg/kg/injection, schedule: Q01DX009 (ip), vehicle: saline with Tween-80 94 % of control | dose: 16.0 mg/kg/injection, schedule: Q01DX009 (ip), vehicle: saline with Tween-80 92 % of control | dose: 32.0 mg/kg/injection, schedule: Q01DX009 (ip), vehicle: saline with Tween-80 94 % of control | dose: 64.0 mg/kg/injection, schedule: Q01DX009 (ip), vehicle: saline with Tween-80 108 % of control | dose: 128.0 mg/kg/injection, schedule: Q01DX009 (ip), vehicle: saline with Tween-80 103 % of control

CN(C)S(=O)(=O)CC(O)C(Cl)(Cl)Cl (stereo unspecified)
inactive: [10] 100 % of control | [11] 98 % of control | [12] 98 % of control

CC1C2C1C1C3NN=CC3C2n2c(=O)n(-c3ccccc3)c(=O)n21 (stereo unspecified)
inactive: [4] 99 % of control | [5] 100 % of control | [6] 105 % of control

OCC(O)c1c(-c2ccccc2)c(-c2ccccc2)c2n1CCC2 (stereo unspecified)
inactive: [4] 96 % of control | [5] 93 % of control | [6] 92 % of control

COc1cccc(Nc2ncnc3c2c(=O)n(C)c(=O)n3C)c1
inactive: dose: 25.0 mg/kg/injection, schedule: Q01DX005 (ip), vehicle: saline with Tween-80 91 % of control | [19] 87 % of control | [20] 87 % of control

CC(C)(C)OC(=O)NC(CCC(=O)O)C(=O)O (stereo unspecified)
inactive: [19] 100 % of control | [20] 97 % of control | [21] 103 % of control
